In ChEMBL document CHEMBL1255461, “KPC-producing extreme drug-resistant Klebsiella pneumoniae isolate from a patient with diabetes mellitus and chronic renal failure on hemodialysis in South Korea” (2010):
In brackets after ≈: the same amount, converted by molar mass.

Each molecule was assayed on Klebsiella pneumoniae (assay: Antimicrobial activity against multidrug-resistant Klebsiella pneumoniae isolate Kpn-DK2 by broth microdilution method).
Type: functional

| Molecule | MIC [µg/mL] |
| --- | --- |
| CO/N=C(\C(=O)N[C@@H]1C(=O)N2C(C(=O)[O-])=C(C[N+]3(C)CCCC3)CS[C@H]12)c1csc(N)n1 | > 64 |
| CC1(C)S[C@@H]2[C@H](NC(=O)[C@H](N)c3ccccc3)C(=O)N2[C@H]1C(=O)O [AMPICILLIN] | > 64 |
| C[C@H]1[C@H](NC(=O)/C(=N\OC(C)(C)C(=O)O)c2csc(N)n2)C(=O)N1S(=O)(=O)O [AZTREONAM] | > 64 |
| CCN1CCN(C(=O)N[C@@H](C(=O)N[C@@H]2C(=O)N3C(C(=O)O)=C(CSc4nnnn4C)CS[C@H]23)c2ccc(O)cc2)C(=O)C1=O [CEFOPERAZONE] | > 64 |
| CO/N=C(\C(=O)N[C@@H]1C(=O)N2C(C(=O)O)=C(COC(C)=O)CS[C@H]12)c1csc(N)n1 [CEFOTAXIME] | > 128 |
| CC(C)(O/N=C(\C(=O)N[C@@H]1C(=O)N2C(C(=O)[O-])=C(C[n+]3ccccc3)CS[C@H]12)c1csc(N)n1)C(=O)O [CEFTAZIDIME] | > 64 |
| Nc1nc(/C(=N/O)C(=O)N[C@@H]2C(=O)N3C(C(=O)O)=C(/C=C4\CCN([C@@H]5CCNC5)C4=O)CS[C@H]23)ns1 [CEFTOBIPROLE] | > 32 |
| C[C@@H](O)[C@H]1C(=O)N2C(C(=O)O)=C(S[C@@H]3CN[C@H](CNS(N)(=O)=O)C3)[C@H](C)[C@H]12 [DORIPENEM] | 16 (≈ 38 µM) |
| C[C@@H](O)[C@H]1C(=O)N2C(C(=O)O)=C(SCCNC=N)C[C@H]12 [IMIPENEM ANHYDROUS] | 32 (≈ 107 µM) |
| CCN1CCN(C(=O)N[C@@H](C(=O)N[C@@H]2C(=O)N3[C@@H]2SC(C)(C)[C@@H]3C(=O)O)c2ccccc2)C(=O)C1=O [PIPERACILLIN] | > 256 |
| CC1(C)[C@H](C(=O)O)N2C(=O)C[C@H]2S1(=O)=O [SULBACTAM] | 32 (≈ 137 µM) |
| C[C@]1(Cn2ccnn2)[C@H](C(=O)O)N2C(=O)C[C@H]2S1(=O)=O [TAZOBACTAM] | 4 (≈ 13.3 µM) |
| CN(C)c1cc(NC(=O)CNC(C)(C)C)c(O)c2c1C[C@H]1C[C@H]3[C@H](N(C)C)C(O)=C(C(N)=O)C(=O)[C@@]3(O)C(O)=C1C2=O [TIGECYCLINE] | 4 (≈ 6.83 µM) |
| COc1cc(Cc2cnc(N)nc2N)cc(OC)c1OC [TRIMETHOPRIM] | > 32 |
| COLISTIN | > 64 |
| GENTAMICIN | > 64 |
| POLYMYXIN B | > 64 |
